Patent publication US9115152B2, “Alkylated piperazine compounds” (Genentech, Inc., priority 2011, dated 2015)

Test system: production of CD69 by B lymphocytes in human whole blood
Assay: CD69 Whole Blood Assay (CD69 Hu Blood FACS)
Assay type: cell-based
Settings: stimulated with goat F(ab')2 anti-human IgM, 20 hours, CD69 positive of CD20 positive cells; for CD69 Hu Blood FACS (IC70): Table 2, unit inferred; for IC70: Lymphocyte
Source text: A CD69 Whole Blood Assay can be conducted on Formula I compounds to determine the ability of compounds to inhibit the production of CD69 by B lymphocytes in human whole blood activated by crosslinking surface IgM with goat F(ab′)2 anti-human IgM (Example 907). CD69 is a type II C-type lectin involved in lymphocyte migration and cytokine secretion. CD69 expression represents one of the earliest available indicators of leukocyte activation and its rapid induction occurs through transcriptional activation (Vazquez et al (2009) Jour. of Immunology Published Oct. 19, 2009, doi:10.4049/jimmunol.0900839). Concentration-dependent inhibition of antigen receptor stimulation by selective Btk inhibitors induces cell surface expression of the lymphocyte activation marker CD69 (Honigberg et al (2010) Proc. Natl. Acad. Sci. 107(29):13075-13080). Thus, CD69 inhibition by selective Btk inhibitors may be correlated with therapeutic efficacy of certain B-cell disorders.
Human blood is obtained from healthy volunteers, with the following restrictions: 1 week drug-free, non-smokers. Blood (approximately 20 mls to test 8 compounds) is collected by venipuncture into Vacutainer® (Becton, Dickinson and Co.) tubes with sodium heparin.
Solutions of Formula I compounds at 10 mM in DMSO are diluted 1:10 in 100% DMSO, then are diluted by three-fold serial dilutions in 100% DMSO for a ten point dose-response curve. The compounds are further diluted 1:10 in PBS and then an aliquot of 5.5 μl of each compound is added in duplicate to a 2 ml 96-well plate; 5.5 μl of 10% DMSO in PBS is added as control and no-stimulus wells. Human whole blood—HWB (100 μl) is added to each well. After mixing the plates are incubated at 37° C., 5% CO2, 100% humidity for 30 minutes. Goat F(ab′)2 anti-human IgM (10 μl of a 500 μg/ml solution, 50 μg/ml final) is added to each well (except the no-stimulus wells) with mixing and the plates are incubated for an additional 20 hours. At the end of the 20 hour incubation, samples are incubated with fluorescent labeled antibodies for 30 minutes, at 37° C., 5% CO2, 100% humidity. Include induced control, unstained and single stains for compensation adjustments and initial voltage settings. Samples are then lysed with PharM Lyse™ (BD Biosciences Pharmingen) according to the manufacturer's instructions. Samples are then transferred to a 96 well plate suitable to be run on the BD Biosciences HTS 96 well system on the LSRII machine. Data acquired and Mean Fluorescence Intensity values were obtained using BD Biosciences DIVA Software. Results are initially analyzed by FACS analysis software (Flow Jo).

Row | SMILES | CD69 Hu Blood FACS (IC70) [nM] | IC70 [nM]
1 | C[C@H]1CN(C2COC2)CCN1c1ccc(Nc2cc(-c3cccc(-n4ncc5c6c(sc5c4=O)CCCC6)c3CO)cn(C)c2=O)nc1 [Compound 130, 3-[2-(hydroxymethyl)-3-[1-methyl-5-[[5-[(2S)-2-methyl-4-(oxetan-3-yl)piperazin-1-yl]-2-pyridyl]amino]-6-oxo-3-pyridyl]phenyl]-6,7,8,9-tetrahydrobenzothiopheno[2,3-d]pyridazin-4-one] | 35.4 | –
2 | C[C@H]1CN(c2ccc(Nc3cc(-c4cc(F)cc(N5CCn6c(cc7c6CCCC7)C5=O)c4CO)cn(C)c3=O)nc2)CCN1C [Compound 107, (S)-2-(3-(5-(5-(3,4-dimethylpiperazin-1-yl)pyridin-2-ylamino)-1-methyl-6-oxo-1,6-dihydropyridin-3-yl)-5-fluoro-2-(hydroxymethyl)phenyl)-3,4,6,7,8,9-hexahydropyrazino[1,2-a]indol-1(2H)-one] | – | 44
3 | C[C@H]1CN(C2COC2)CCN1c1ccc(Nc2cc(-c3cc(F)cc(-n4ncc5c6c(sc5c4=O)CC(C)(C)C6)c3CO)cn(C)c2=O)nc1 [Compound 131, 3-[5-fluoro-2-(hydroxymethyl)-3-[1-methyl-5-[[5-[(2S)-2-methyl-4-(oxetan-3-yl)piperazin-1-yl]-2-pyridyl]amino]-6-oxo-3-pyridyl]phenyl]-7,7-dimethyl-6,8-dihydrocyclopenta[3,4]thieno[1,3-d]pyridazin-4-one] | 34.9 | –
4 | CNC(=O)c1c(-c2cc(Nc3ccc(N4CCN(C5COC5)C[C@@H]4C)cn3)c(=O)n(C)c2)cc(F)cc1N1CCn2c(cc3c2CC(C)(C)C3)C1=O [Compound 129, 2-(7,7-dimethyl-4-oxo-1,2,6,8-tetrahydrocyclopenta[3,4]pyrrolo[3,5-b]pyrazin-3-yl)-4-fluoro-N-methyl-6-[1-methyl-5-[[5-[(2S)-2-methyl-4-(oxetan-3-yl)piperazin-1-yl]-2-pyridyl]amino]-6-oxo-3-pyridyl]benzamide] | 472 | –
5 | C[C@H]1CN(C2COC2)CCN1c1ccc(Nc2cc(-c3cc(F)cc(N4CCc5c(cc6n5CCCC6)C4=O)c3CO)cn(C)c2=O)nc1 [Compound 101, (S)-2-(5-fluoro-2-(hydroxymethyl)-3-(1-methyl-5-(5-(2-methyl-4-(oxetan-3-yl)piperazin-1-yl)pyridin-2-ylamino)-6-oxo-1,6-dihydropyridin-3-yl)phenyl)-3,4,6,7,8,9-hexahydropyrido[3,4-b]indolizin-1(2H)-one] | – | 33.8
6 | CN1CCN(c2ccc(Nc3cc(-c4cc(F)cc(N5CCn6c(cc7c6CCCC7)C5=O)c4CO)cn(C)c3=O)nc2)CC1CF (stereo not drawn) [Compound 111, 2-(5-fluoro-3-(5-(5-(3-(fluoromethyl)-4-methylpiperazin-1-yl)pyridin-2-ylamino)-1-methyl-6-oxo-1,6-dihydropyridin-3-yl)-2-(hydroxymethyl)phenyl)-3,4,6,7,8,9-hexahydropyrazino[1,2-a]indol-1(2H)-one] | – | 92
7 | C[C@@H]1CN(c2ccc(Nc3cc(-c4cc(F)cc(N5CCc6c(cc7n6CCCC7)C5=O)c4CO)cn(C)c3=O)nc2)[C@@H](C)CN1C1COC1 [Compound 126, 2-[3-[5-[[5-[(2S,5R)-2,5-dimethyl-4-(oxetan-3-yl)piperazin-1-yl]-2-pyridyl]amino]-1-methyl-6-oxo-3-pyridyl]-5-fluoro-2-(hydroxymethyl)phenyl]-3,4,6,7,8,9-hexahydropyrido[3,4-b]indolizin-1-one] | 57.1 | –
8 | C[C@H]1CN(C2COC2)CCN1c1ccc(Nc2cc(-c3cc(F)cc(-n4ncc5c(cc6n5CCCC6)c4=O)c3CO)cn(C)c2=O)nc1 [Compound 127, 2-[5-fluoro-2-(hydroxymethyl)-3-[1-methyl-5-[[5-[(2S)-2-methyl-4-(oxetan-3-yl)piperazin-1-yl]-2-pyridyl]amino]-6-oxo-3-pyridyl]phenyl]-6,7,8,9-tetrahydropyridazino[4,5-b]indolizin-1-one] | 51 | –
9 | C[C@@H]1CN(c2ccc(Nc3cc(-c4cc(F)cc(N5CCn6c(cc7c6CCCC7)C5=O)c4CO)cn(C)c3=O)nc2)CCN1C [Compound 108, (R)-2-(3-(5-(5-(3,4-dimethylpiperazin-1-yl)pyridin-2-ylamino)-1-methyl-6-oxo-1,6-dihydropyridin-3-yl)-5-fluoro-2-(hydroxymethyl)phenyl)-3,4,6,7,8,9-hexahydropyrazino[1,2-a]indol-1(2H)-one] | – | 23
10 | C[C@H]1CN(C2COC2)CCN1c1ccc(Nc2cc(-c3cc(F)cc(N4CCn5c(cc6c5CC(C)(C)C6)C4=O)c3CO)cn(C)c2=O)nc1 [Compound 103, (2S)-10-[5-fluoro-2-(hydroxymethyl)-3-[1-methyl-5-({5-[2-methyl-4-(oxetan-3-yl)piperazin-1-yl]pyridine-2-yl}amino)-6-oxo-1,6-dihydropyridin-3-yl]phenyl]-4,4-dimethyl-1,10-diazatricyclo[6.4.0.02,6]dodeca-2(6),7-dien-9-one] | – | 14.5
11 | C[C@H]1CN(C2COC2)CCN1c1ccc(Nc2cc(-c3cc(F)cc(N4CCn5c(cc6c5CCCC6)C4=O)c3CO)cn(C)c2=O)nc1 [Compound 106, (S)-2-(5-fluoro-2-(hydroxymethyl)-3-(1-methyl-5-(5-(2-methyl-4-(oxetan-3-yl)piperazin-1-yl)pyridin-2-ylamino)-6-oxo-1,6-dihydropyridin-3-yl)phenyl)-3,4,6,7,8,9-hexahydropyrazino[1,2-a]indol-1(2H)-one] | – | 19
12 | C[C@H]1CN(C2COC2)CCN1c1ccc(Nc2cc(-c3cc(F)cc(N4CCn5c(cc6c5CC(C)(C)C6)C4=O)c3C(=O)O)cn(C)c2=O)nc1 [Compound 128, 2-(7,7-dimethyl-4-oxo-1,2,6,8-tetrahydrocyclopenta[3,4]pyrrolo[3,5-b]pyrazin-3-yl)-4-fluoro-6-[1-methyl-5-[[5-[(2S)-2-methyl-4-(oxetan-3-yl)piperazin-1-yl]-2-pyridyl]amino]-6-oxo-3-pyridyl]benzoic acid] | 5000 | –
13 | C[C@@H]1CN(c2ccc(Nc3cc(-c4cc(F)cc(N5CCn6c(cc7c6CCCC7)C5=O)c4CO)cn(C)c3=O)nc2)[C@@H](C)CN1C1COC1 [Compound 104, 2-(3-(5-(5-((2S,5R)-2,5-dimethyl-4-(oxetan-3-yl)piperazin-1-yl)pyridin-2-ylamino)-1-methyl-6-oxo-1,6-dihydropyridin-3-yl)-5-fluoro-2-(hydroxymethyl)phenyl)-3,4,6,7,8,9-hexahydropyrazino[1,2-a]indol-1(2H)-one] | – | 15
14 | C[C@H]1CN(C2COC2)CCN1c1ccc(Nc2cc(-c3cc(F)cc(-n4ncc5c6c(sc5c4=O)CCCC6)c3CO)cn(C)c2=O)nc1 [Compound 102, (S)-5-[5-fluoro-2-(hydroxymethyl)-3(1-methyl-5-(5-(2-methyl-4-(oxetan-3-yl)piperazin-1-yl)pyridin-2-ylamino)-6-oxo-1,6-dihydropyridin-3-yl)phenyl]-8-thia-4,5-diazatricyclo[7.4.0.02,7]trideca-1(9),2(7),3-trien-6-one] | – | 31
15 | CC[C@H]1CN(C2COC2)CCN1c1ccc(Nc2cc(-c3cc(F)cc(N4CCn5c(cc6c5CCCC6)C4=O)c3CO)cn(C)c2=O)nc1 [Compound 105] | – | 8
16 | CN1C2COCC1CN(c1ccc(Nc3cc(-c4cc(F)cc(N5CCn6c(cc7c6CCCC7)C5=O)c4CO)cn(C)c3=O)nc1)C2 [Compound 112, 2-(5-fluoro-2-(hydroxymethyl)-3-(1-methyl-5-(5-(9-methyl-7-oxa-3,9-diaza-bicyclo[3.3.1]nonan-3-yl)pyridin-2-ylamino)-6-oxo-1,6-dihydropyridin-3-yl)phenyl)-3,4,6,7,8,9-hexahydropyrazino[1,2-a]indol-1(2H)-one] | – | 170
17 | C[C@H]1CN(C)CCN1c1ccc(Nc2cc(-c3cc(F)cc(N4CCn5c(cc6c5CCCC6)C4=O)c3CO)cn(C)c2=O)nc1 [Compound 110, (S)-2-(3-(5-(5-(2,4-dimethylpiperazin-1-yl)pyridin-2-ylamino)-1-methyl-6-oxo-1,6-dihydropyridin-3-yl)-5-fluoro-2-(hydroxymethyl)phenyl)-3,4,6,7,8,9-hexahydropyrazino[1,2-a]indol-1(2H)-one] | – | 6
18 | C[C@@H]1CN(C)CCN1c1ccc(Nc2cc(-c3cc(F)cc(N4CCn5c(cc6c5CCCC6)C4=O)c3CO)cn(C)c2=O)nc1 [Compound 109, (R)-2-(3-(5-(5-(2,4-dimethylpiperazin-1-yl)pyridin-2-ylamino)-1-methyl-6-oxo-1,6-dihydropyridin-3-yl)-5-fluoro-2-(hydroxymethyl)phenyl)-3,4,6,7,8,9-hexahydropyrazino[1,2-a]indol-1(2H)-one] | – | 29
